The values below come from patent US11192889B2, “Tetrahydronaphthyridinepentanamide integrin antagonists” (The Rockefeller University, priority 2016, dated 2021).

Experiment [1] deals with T1, HEK-293-αVβ3 cells (Homo sapiens, UniProt P05106+P06756). Description: AP5 Binding Assay. Type of experiment: cell-based. Particulars: for EC50: concentration inducing 50% of the AP5 expression induced by 1 μM cilengitide; for activation at 10 µM: read-out: AP5 expression induced at the highest concentration. The source says: (§1) HEK-293 Cells Expressing αVβ3. HEK-293 cells were transfected using lipofectamine 2000 (Invitrogen #11668030) with the cDNA for αV using the pEF1/V5-His A vector and the cDNA for β3 using the vector pcDNA3.1. Cells expressing αVβ3 were identified by their reaction with murine monoclonal antibodies (mAbs) LM609 and 7E3, and stable cell lines were established by repetitive sorting using LM609. […] HEK-293-αVβ3 cells for assays are counted in an automated cell counter (ADVIA 120) and adjusted to values appropriate for each assay.
AP5 Binding Assay. HEK-293-αVβ3 cells are harvested using 0.05% trypsin 0.5 mM EDTA, washed with HBMT once, and resuspended in HBMT containing 1 mM Mg2+ and 2 mM Ca2+. The cells are counted and adjusted to 0.5×10^6 cells per sample. The compound to be tested and fluorescently labeled mAb AP5 (either Alexa 488 or Alexa 674; 10 μg/mL) are added and incubated for 30 minutes at 37° C. The cells are then washed and analyzed by flow cytometry (BD FACSCalibur) at the appropriate wavelength for detecting the AP5 fluorophore. In each assay, cilengitide (1 μM) and 10 mM EDTA are included as positive controls and untreated cells are used as the negative control. The concentration of the test compound required to induce the expression of 50% of the AP5 expression induced by cilengitide is calculated and defined as the EC50. The EC50 for cilengitide was determined based on the expression induced by EDTA.

Experiment [2] deals with T1, HEK-293-αVβ3 cells. Description: αVβ3 Cell Adhesion to Fibrinogen Assay. Type of experiment: cell-based. Further details: IC50; other: dose reducing by 50% the adhesion of HEK-293-αVβ3 cells to fibrinogen; untreated cells 100% adhesion, 10 mM EDTA 0%. Particulars: dose reducing by 50% the adhesion of HEK-293-αVβ3 cells to fibrinogen; separate determinations listed.
Text: as §1
αVβ3 Cell Adhesion to Fibrinogen Assay. Polystyrene 96-well microtiter plates (Costar, 3590) are precoated with 3.5 μg/mL of purified fibrinogen (Enzyme Research Laboratories) in 0.15 M NaCl, 0.01 M Tris/HCL, pH 7.4 for 1 hour at 37° C. The wells are then washed and incubated with HEPES-Buffered Modified Tyrode's solution (HBMT; 0.128 M NaCl, 10 mM HEPES, 12 mM NaHCO3, 0.4 mM NaH2PO4, 2.7 mM KCl, 0.35% bovine serum albumin (Fisher), 0.1% glucose, pH 7.4) for 1 hour at room temperature or overnight at 4° C. Wells are washed with HBMT containing 1 mM Mg2+ and 2 mM Ca2+ and then 50 μL of HEK-293-αVβ3 cells that have been pretreated with the compound to be tested for 20 minutes at room temperature are added to each well at a concentration of 3,000 cells/μL. After 30-32 minutes the wells are washed with HBMT containing Ca2+ and Mg2+ three times and then the adherent cells are lysed and the acid phosphatase activity that is released is measured by: 1. adding phosphatase substrate (Sigma EC 224-246-5) at 2 mg/mL in 0.1 M Na citrate, pH 5.6, 0.1% triton X-100 for 1 hour at room temperature; 2. stopping the reaction by adding 50 μL of 2 M NaOH; and 3. analyzing the samples in a spectrophotometer at 405 nm. In each assay, 10 mM EDTA is used as a positive control and untreated cells are used as a negative control. The IC50 is the dose of test compound that reduces by 50% the adhesion of the HEK-293-αVβ3 cells, taking the results with untreated cells as 100% and the results in the presence of EDTA as 0%. In some instances more than one IC50 determination was made, in which case, results of separate determinations are reported. IC50's were not determined for all compounds in the table; for some of these test compounds the inhibition at specific doses are reported. In some instances, the test compound produced a greater reduction than 10 mM EDTA, and these are shown as negative numbers.

Where [3] appears, read: @10 μM, relative to AP5 expression induced by cilengitide.

Where “and” joins values, the source holds several entries; their conditions need not be identical. Identical values can stand only once.

T1 sequence (P05106 whole entry): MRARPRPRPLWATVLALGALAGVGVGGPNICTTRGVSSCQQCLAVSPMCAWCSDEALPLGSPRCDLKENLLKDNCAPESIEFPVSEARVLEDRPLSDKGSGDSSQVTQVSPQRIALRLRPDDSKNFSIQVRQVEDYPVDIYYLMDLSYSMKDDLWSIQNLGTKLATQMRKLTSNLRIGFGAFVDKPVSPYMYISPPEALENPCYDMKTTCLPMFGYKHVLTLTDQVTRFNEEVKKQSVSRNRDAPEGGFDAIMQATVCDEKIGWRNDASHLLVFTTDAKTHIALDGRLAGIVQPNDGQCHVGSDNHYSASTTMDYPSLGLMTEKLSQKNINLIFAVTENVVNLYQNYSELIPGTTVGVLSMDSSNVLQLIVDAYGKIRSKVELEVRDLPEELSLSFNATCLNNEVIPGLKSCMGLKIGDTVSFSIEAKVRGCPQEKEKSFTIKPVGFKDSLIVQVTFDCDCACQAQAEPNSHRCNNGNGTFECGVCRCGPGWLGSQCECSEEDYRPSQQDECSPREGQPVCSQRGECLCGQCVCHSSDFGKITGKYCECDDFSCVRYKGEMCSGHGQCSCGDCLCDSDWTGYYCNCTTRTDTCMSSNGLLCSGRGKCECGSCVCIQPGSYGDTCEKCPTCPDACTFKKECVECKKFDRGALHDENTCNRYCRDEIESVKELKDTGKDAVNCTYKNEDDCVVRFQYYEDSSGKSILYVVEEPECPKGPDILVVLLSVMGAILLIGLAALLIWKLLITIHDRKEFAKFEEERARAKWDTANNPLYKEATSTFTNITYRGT
T1 sequence (P06756 whole entry): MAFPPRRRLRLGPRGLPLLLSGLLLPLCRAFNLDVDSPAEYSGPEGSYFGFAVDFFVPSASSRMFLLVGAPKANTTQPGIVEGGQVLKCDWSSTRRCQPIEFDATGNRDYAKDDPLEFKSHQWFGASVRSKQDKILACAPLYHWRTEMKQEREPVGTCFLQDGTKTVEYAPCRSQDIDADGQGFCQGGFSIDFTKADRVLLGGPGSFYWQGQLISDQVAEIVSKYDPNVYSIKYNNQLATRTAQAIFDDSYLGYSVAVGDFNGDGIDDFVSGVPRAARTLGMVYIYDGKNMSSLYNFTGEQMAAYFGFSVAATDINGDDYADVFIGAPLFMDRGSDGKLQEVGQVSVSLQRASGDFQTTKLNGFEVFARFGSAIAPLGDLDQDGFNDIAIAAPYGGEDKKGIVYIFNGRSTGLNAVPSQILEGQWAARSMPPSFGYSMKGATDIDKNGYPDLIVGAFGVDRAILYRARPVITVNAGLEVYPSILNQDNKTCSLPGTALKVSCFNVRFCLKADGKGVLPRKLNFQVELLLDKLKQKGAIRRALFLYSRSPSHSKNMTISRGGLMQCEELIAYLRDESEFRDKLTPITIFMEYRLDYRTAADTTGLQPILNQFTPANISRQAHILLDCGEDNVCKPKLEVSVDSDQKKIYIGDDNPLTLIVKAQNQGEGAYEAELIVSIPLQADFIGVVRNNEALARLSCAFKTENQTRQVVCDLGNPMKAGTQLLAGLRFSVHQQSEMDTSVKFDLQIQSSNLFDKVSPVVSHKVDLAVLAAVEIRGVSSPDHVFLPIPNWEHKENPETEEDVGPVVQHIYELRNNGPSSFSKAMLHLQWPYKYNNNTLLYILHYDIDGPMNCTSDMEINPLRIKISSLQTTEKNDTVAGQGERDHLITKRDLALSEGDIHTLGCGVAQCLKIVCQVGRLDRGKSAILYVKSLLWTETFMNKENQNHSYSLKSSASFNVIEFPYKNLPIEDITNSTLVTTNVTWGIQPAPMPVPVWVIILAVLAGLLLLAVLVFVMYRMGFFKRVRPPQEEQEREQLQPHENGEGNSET

Broadly, the EC50 is the concentration giving half of the maximal effect. High values mean a less potent agent, low ones a more potent agent. One may read the IC50 as the concentration needed to halve the response being measured. With `O=C(CCCCc1ccc2c(n1)NCCC2)NCCC(C(=O)O)c1cnc2ccccc2c1` (single isomer, unassigned) [Example 89, 2-(3-quinolyl)-4-[5-(5,6,7,8-tetrahydro-1,8-naphthyridin-2-yl)pentanoylamino]butanoic acid], the “AP5 expression induced at the highest concentration” value on HEK-293-αVβ3 cells [1] (setting [3]) was found to be 27%. At HEK-293-αVβ3 cells [1], this molecule returned an EC50 of over 10 µM. This molecule also came in with an IC50 against HEK-293-αVβ3 cells [2] of 0.106 µM.

For `CC(C)COC(=O)NC(CCNC(=O)CCCCc1ccc2c(n1)NCCC2)C(=O)O` (centres unmarked) [Example 38, 2-(Isobutoxycarbonylamino)-4-[5-(5,6,7,8-tetrahydro-1,8-naphthyridin-2-yl)pentanoylamino]butanoic acid], on HEK-293-αVβ3 cells [1] (setting [3]), the activation at 10 µM was found to be 20%. This molecule also displayed an EC50 at HEK-293-αVβ3 cells [1] of over 10 µM. The IC50 against HEK-293-αVβ3 cells [2] was 0.343 µM and 0.416 µM.

Turning to `O=C(CCCCc1ccc2c(n1)NCCC2)NCCC(NC(=O)OCc1ccc(F)c(F)c1)C(=O)O` (centres unmarked) [Example 68], at HEK-293-αVβ3 cells [1] (setting [3]), the activation at 10 µM was found to be 9%. The EC50 on HEK-293-αVβ3 cells [1] is over 10 µM. On HEK-293-αVβ3 cells [2], the IC50 was found to be 0.32 µM.

For `COc1ccccc1COC(=O)NC(CCNC(=O)CCCCc1ccc2c(n1)NCCC2)C(=O)O` (centres unmarked) [Example 63], at HEK-293-αVβ3 cells [1] (setting [3]), the activation at 10 µM stood at 16%. This molecule had an EC50 on HEK-293-αVβ3 cells [1] of over 10 µM. For the same molecule, 0.491 µM corresponded to half-maximal inhibition at HEK-293-αVβ3 cells [2] (IC50).

As to `O=C(CCCCc1ccc2c(n1)NCCC2)NCC[C@@H](Nc1ncc(-c2ccccc2)cn1)C(=O)O` [Example 91, (R)-2-((5-phenylpyrimidin-2-yl)amino)-4-(5-(5,6,7,8-tetrahydro-1,8-naphthyridin-2-yl)pentanamido)butanoic acid], the EC50 on HEK-293-αVβ3 cells [1] is over 10 µM. Moreover, the IC50 at HEK-293-αVβ3 cells [2] turned out to be 0.534 µM.

As for `O=C(CCCCc1ccc2c(n1)NCCC2)NCCC(Nc1nc2ccccc2s1)C(=O)O` (centres unmarked) [Example 70, 2-(1,3-Benzothiazol-2-ylamino)-4-[5-(5,6,7,8-tetrahydro-1,8-naphthyridin-2-yl)pentanoylamino]butanoic acid], the activation at 10 µM at HEK-293-αVβ3 cells [1] (setting [3]) was 6%. The same molecule gave an EC50 on HEK-293-αVβ3 cells [1] of over 10 µM. On HEK-293-αVβ3 cells [2], this molecule showed an IC50 of 0.525 µM.

As to `O=C(CCCCc1ccc2c(n1)NCCC2)NCCC(C(=O)O)n1cnc(-c2ccccc2)n1` (centres unmarked) [Example 78, 2-(3-phenyl-1,2,4-triazol-1-yl)-4-[5-(5,6,7,8-tetrahydro-1,8-naphthyridin-2-yl)pentanoylamino]butanoic acid], the activation at 10 µM at HEK-293-αVβ3 cells [1] (setting [3]) came to 10%. At HEK-293-αVβ3 cells [1], this molecule yielded an EC50 of over 10 µM. For the same molecule, on HEK-293-αVβ3 cells [2], the IC50 stood at 0.518 µM.

Consider `O=C(CCCCc1ccc2c(n1)NCCC2)NCC[C@@H](NC(=O)c1nc2ccccc2s1)C(=O)O` [Example 86, (R)-2-(benzo[d]thiazole-2-carboxamido)-4-(5-(5,6,7,8-tetrahydro-1,8-naphthyridin-2-yl)pentanamido)butanoic acid], for which the activation at 10 µM at HEK-293-αVβ3 cells [1] (setting [3]) stood at 7%. This molecule also showed an EC50 on HEK-293-αVβ3 cells [1] of over 10 µM. The IC50 at HEK-293-αVβ3 cells [2] is 0.129 µM and 0.169 µM.

Take `O=C(CCCCc1nc2c(cc1C1CC1)CCCN2)NCCC(NC(=O)OCc1ccccc1)C(=O)O` (centres unmarked) [Example 82, 2-(benzyloxycarbonyl-amino)-4-[5-(3-cyclopropyl-5,6,7,8-tetrahydro-1,8-naphthyridin-2-yl)pentanoyl-amino]butanoic acid]: on HEK-293-αVβ3 cells [1] (setting [3]), the activation at 10 µM was 12%. For the same molecule, on HEK-293-αVβ3 cells [1], the EC50 is over 10 µM. The same molecule came in with an IC50 at HEK-293-αVβ3 cells [2] of 0.206 µM.

Take `O=C(CCCCc1ccc2c(n1)NCCC2)NCCC(NC(=O)CO)C(=O)O` (centres unmarked) [Example 34]: the activation at 10 µM on HEK-293-αVβ3 cells [1] (setting [3]) is 32%. Besides, the EC50 at HEK-293-αVβ3 cells [1] was over 10 µM. The molecule also registered an IC50 on HEK-293-αVβ3 cells [2] of under 0.1 µM.

Consider `O=C(CCCCc1ccc2c(n1)NCCC2)NCC[C@H](Nc1nc2ccccc2o1)C(=O)O` [Example 87, (2S)-2-(1,3-benzoxazol-2-ylamino)-4-[5-(5,6,7,8-tetrahydro-1,8-naphthyridin-2-yl)pentanoylamino]butanoic acid], for which the activation at 10 µM at HEK-293-αVβ3 cells [1] (setting [3]) was 14%. Also, the 50% effective concentration (EC50) at HEK-293-αVβ3 cells [1] was over 10 µM. The molecule further had an IC50 against HEK-293-αVβ3 cells [2] of 0.187 µM.
